Series [1] concerns acetic acid-induced abdominal writhing. In words: acetic acid-induced abdominal writhing assay (peripheral analgesic). Type of series: in vivo, mice. The conditions noted are these: for % Inhibition/Protection / Writing Reflex ± SE: 10 mg/kg indomethacin mol equivalent i.p.; for Potency: % inhibition/protection compared to indomethacin; for Writing Reflex ± SE: number of writhing counted for 30 min. The procedure: Peripheral analgesic testing
Peripheral analgesic activity was measured by the standard acetic acid-induced writhing […]
One hour after intraperitoneally (i,p.) administration of 10 mg kg−1 (mice body weight) […]
distilled/sterile water by the aid of two drops of Tween 80, each mouse was injected with 0.1 ml of 1% acetic acid solution i.p. The control group animals were given sterile/distilled water only with few drops of Tween 80. Starting 5 min after the acetic acid injection, the number of muscular contractions in each mouse was counted for 30 min. A significant reduction in the number of writhing by any test compound as compared to control animals was considered as a positive analgesic response. Percentage protection was calculated according to equ. (3), where n stands for the average number of writhing in the control group and n' is the average number of writhing in the treated group. The % potency was calculated by equ. (4) (Table 2).
% Inhibition/protection = n−n′ x100 … . (3)
For orientation: In writhing tests, fewer writhes than in controls are read as antinociception.

The subject of series [2] is carrageenan induced paw edema. Briefly: carrageenan-induced rat paw edema. Type of series: in vivo. The note with it: for % Inhibition of Edema ± Standard Error / Mean Edema Thickness: 10 mg/kg indomethacin mol equivalent i.p.; for Mean Edema Thickness: ± standard error. The method, then:
Anti-inflammatory activity screening
The anti-inflammatory activity of the tested compounds was determined in-vivo by the acute carrageenan induced paw edema standard method in rats. Adult Wister rats of either sex (pregnant female animals were excluded) weighing 120–150 g were divided into 19 groups of 6 animals each. The tested compounds dissolved in DMSO, at a dose of 10 mg kg-1 (rat body […]
inflammation. The control group was given DMSO only. Paw edema was induced by subcutaneous injection of freshly prepared 1% solution of carrageenan in saline (0.9%, 0.1 ml per rat) into subplantar tissue of the right hind paw of rats. The thickness of the paw was measured (in mm) after successive time intervals (1, 2, 3, 4 and 24 h) and compared with the initial hind paw thickness of each rat for determining the edema thickness. Data were collected, checked, revised and analyzed (SPSS 16). Quantitative variables from normal distribution were expressed as means ± SE “standard error”. The anti-inflammatory activity was expressed as percentage inhibition of edema thickness in treated animals in comparison with the control group according to eqn. (1) […]
% Inhibition of edema= Vc-Vt x 100 … .. (1)
Where, Vc and Vt are the means of edema paw thickness for the control and tested compound treated animal groups, respectively.
The potency of the tested compounds was expressed as % inhibition of edema thickness […]
% Potency = % inhibition of edema for the tested compound treated group x 100 … . (2)
In general terms: Carrageenan injected into the paw causes an acute inflammation.

Another series concerns hot plate latency. In words: hot plate assay (central analgesic). Type of series: in vivo, mice. The note with it: for % Protection / Latency Period ± SE: 10 mg/kg indomethacin mol equivalent i.p.; for Latency Period ± SE: cutoff 15 sec. The procedure: The % potency was calculated by equ. (4) (Table 2). […]
% Potency = % protection of the tested compound x 100 ……. (4) […]
Central analgesic (hot plate) testing
The standard hot plate technique was undertaken by in vivo standard hot plate test [ 1,2]. […]
by placing them on a hot plate maintained at 55 ± 1 °C, 30 min. […]
suspended in sterile/distilled water by the ai d of two drops of Tween 80, and recording the reaction time in seconds for forepaw licking or jumping. The control group animals were given sterile/distilled water only with few drops of Tween 80. The maximum cutoff time was chosen as 15 sec. to prevent tissue damage. Response latencies were measured 30, 60, 90 and 120 min. after the application. The % protection was calculated by equ. ( 5) where, T1, T0 are the latency time mean of the tested compound and control group, respectively (Table 3).

A further series relates to gastric mucosa. The note with it: both, albino, mouse, in vivo, 3 days; for % Incidence of Ulcer Divided by 10 / Average Severity of Ulcer / Average of Ulcer Number / Number of Animals with Ulcer: po, 10 mg/kg. The procedure:
The ulcerogenic liability was determined in albino mice obeying the standard method.
Animals of either sex (pregnant females were excluded) weighing 20 –25 g were divided into 8 groups of 6 animals each. The animals fasted 18 h before drug administration.
80 administered orally for three successive days to fasted animals at a dose of 10 mg kg-1 (animal […]
The control group animals were given water only with few drops of Tween 80. The animals were sacrificed by cervical dislocation and the stomach was removed, opened along the greater curvature and rinsed with saline. The gastric mucosa was examined with a magnifying lens (10x) for the presence of lesions and ero sions. The ulcer index was calculated (Table 4) and the degree of ulcerogenic effect was expressed in terms of.
1. The percentage incidence of ulcers divided by 10.
2. Average number of ulcers per stomach.
3. Average severity of ulcers.
The ulcer index is the value that resulted from the sum of the above three values. […]

In a further series the test system is IL-6 mRNA. The conditions noted are these: 40 μg/mL; in comparison to LPS-stimulated cells only.
The test system of another series is TNF-α mRNA. The note with it: 40 μg/mL; in comparison to LPS-stimulated cells only.
The subject of another series is iNOS mRNA. The conditions noted are these: 40 μg/mL; in comparison to LPS-stimulated cells only.
Series [3] relates to LPS-stimulated RAW264.7 macrophages. Briefly: NO production of LPS-induced RAW264.7 (Griess method). Format: cell-based. The conditions noted are these: 40 μg/mL; LPS 10 ng/mL; LPS only 22 μM, baseline 12.8 μM. A general note: Griess reagent forms a coloured azo dye with nitrite.
Another series has as its system mice. Briefly: toxicological bioassay. Format: in vivo. The conditions noted are these: five times the anti-inflammatory dose (50 mg/kg indomethacin mol equivalent); recorded 24 h post-administration. The procedure:
Five times the anti-inflammatory dose was orally administrated. […]
5a, 5b, 5d, 5e) was determined utilizing the standard method in mice. Albino mice weighing 20–25 g were divided into 6 groups of 6 mice each. Administrations of the tested compounds dissolved in distilled water by the aid of few drops of Tween 80 were given intraperitoneally in 50 […]
inflammatory dosage). The control group was given water only with few drops of Tween 80. The toxic symptoms and mortality rates were recorded 24 h post -administration in each group.

Each structure is given as a SMILES string. Values joined by “and” are separate entries in the source; they are usually repeats but may differ in a detail not shown here. Equal entries are not always repeated.

Protocol for IL-6 mRNA: (§1) For this purpose, the mRNA levels of IL-6, TNF-α, and iNOS were measured using real-time qPCR (RT-qPCR).
(§2) Treatment of LPS-stimulated RAW264.7 macrophages was done with 40 µg/mL of the isolated
(§3) Evaluation of inflammatory mRNA expression levels
(§4) Inflammatory mRNA expression levels were evaluated using RT-qPCR (Applied Biosystems, CA, USA). Total RNA was extracted by lysing RAW264.7 cells using Qiazol Lysis Reagent. The extracted RNA was used to synthesize cDNA using RevertAid First Strand cDNA synthesis kit according to manufacturer’s protocol. The cDNA was then added with forward and reverse
(§5) primers, nuclease free water and maxima SYBR green mix (Thermo Fisher Scientific, MA, USA).
(§6) The inflammation-related genes of mRNA expression levels are as follows: IL-6, TNF-α, and
(§7) iNOS. All expression was normalized to GAPDH (endogenous control) and relative fold mRNA
(§8) expression levels were calculated using the comparative 2 −ΔΔCT method. The PCR reaction consists
(§9) of initiation stage at 95 °C for 10 min, after that 40 PCR cycles of d enaturation stage for 15 s at 95
(§10) °C and annealing and extension for 1 min at 60 °C.
Protocol for TNF-α mRNA: as §1, §2, §3, §4, §5, §6, §7, §8, §9, §10
Protocol for iNOS mRNA: as §1, §2, §3, §4, §5, §6, §7, §8, §9, §10

Take `COc1ccc2c(c1)c(CC(=O)O)c(C)n2C(=O)c1ccc(Cl)cc1` [Indo, Indomethacin, reference compound]: in [1], the “% Inhibition/Protection” value came to 71.8%, the Potency turned out to be 100.0% and the “Writing Reflex ± SE” value worked out at 11.3 ± 1.6. In series [1] (listed as indomethacin), this compound displayed a Potency of 100%. Also, the “% Inhibition of Edema ± Standard Error” value in [2] (24 h, 10 mg/kg) is listed as 12.0 ± 2.1%. For the same compound, the “% Inhibition of Edema ± Standard Error” value in series [2] (24 h, listed as indomethacin, 10 mg/kg) was 12.0%. The “% Potency” value in series [2] (% inhibition of edema thickness relative to indomethacin at 3 h) turned out to be 100%. Moreover, in the series on hot plate latency (after 30 min), the “% Protection” value is on record as 87.1% and the “Latency Period ± SE” value amounted to 12.50 ± 2.0 s. For the same compound, in the series on hot plate latency (after 60 min), the “% Protection” value turned out to be 80.9% and the “Latency Period ± SE” value was found to be 13.15 ± 1.6 s. For the same compound, in the series on hot plate latency (after 90 min), the “% Protection” value came to 57.9% and the “Latency Period ± SE” value was 14.07 ± 1.2 s. Besides, in the series on hot plate latency (after 120 min), the “% Protection” value is recorded as 56.5% and the “Latency Period ± SE” value is 14.10 ± 1.9 s. For the same compound, the Potency with hot plate latency (at 120 min compared to indomethacin) came out at 100. Moreover, in the series with gastric mucosa, the “% Incidence of Ulcer Divided by 10” value is reported as 10, the “Average Severity of Ulcer” value amounted to 1.67, the “Average of Ulcer Number” value was determined as 2 and the “Number of Animals with Ulcer” value is reported as 6/6.
In the case of `CC(C)Cc1ccc(C(C)C(=O)OCc2cn(-c3ccccc3Cl)nn2)cc1` (stereo not drawn) [Compound 5a, (1-(2-Chlorophenyl)-1H-1,2,3-triazol-4-yl)methyl 2-(4-isobutylphenyl)propanoate], the “reduction in IL-6 mRNA levels” value with IL-6 mRNA is reported as 61.3%. For the same compound, the “% Inhibition/Protection” value in [1] is 83.3%. The “Writing Reflex ± SE” value in [1] was found to be 6.7 ± 0.7. In addition, the “% Inhibition of Edema ± Standard Error” value in series [2] (1 h) is 29.7 ± 1.1%; in series [2] (2 h), 31.3 ± 0.8%; in series [2] (3 h, 10 mg/kg), 95.4% and 95.4 ± 0.7%; in series [2] (4 h), 45.7 ± 1.4%; in series [2] (24 h, 10 mg/kg), 22.5% and 22.5 ± 0.9%. The “Mean Edema Thickness” value in series [2] (3 h) is 0.033 ± 0.01 mm; in series [2] (24 h) it was 0.713 ± 0.02 mm. Further, the “reduction in TNF-α mRNA levels” value in the series with TNF-α mRNA worked out at 88%. The “reduction in iNOS mRNA levels” value in the series on iNOS mRNA turned out to be 34%. For the same compound, the “% Protection” value is given as 79.2% with hot plate latency (after 30 min), 71.5% with hot plate latency (after 60 min), 34.5% in the series with hot plate latency (after 90 min) and 54.5% with hot plate latency (after 120 min). The “Latency Period ± SE” value is 11.97 ± 2.5 s in the series with hot plate latency (after 30 min), 12.47 ± 2.0 s in the series with hot plate latency (after 60 min), 11.98 ± 2.6 s with hot plate latency (after 90 min) and 13.92 ± 2.3 s with hot plate latency (after 120 min). Also, the “LPS-stimulated NO production (nitrite)” value in series [3] came to 17.7 µM. Besides, in the series with gastric mucosa, the “Ulcer Index” value amounted to 0. Further, the “% Incidence of Ulcer Divided by 10” value in the series on gastric mucosa stood at 0. The “Average Severity of Ulcer” value with gastric mucosa is recorded as 0. Further, the “Average of Ulcer Number” value in the series with gastric mucosa amounted to 0. For the same compound, the “Number of Animals with Ulcer” value in the series on gastric mucosa was determined as 0. For the same compound, the “toxic symptoms or mortality” value in the series with mice was “No toxic symptoms or mortality”.
With `CC(C)Cc1ccc(C(C)C(=O)OCc2cn(-c3ccc(Cl)cc3)nn2)cc1` (stereo not drawn) [Compound 5b, (1-(4-Chlorophenyl)-1H-1,2,3-triazol-4-yl)methyl 2-(4-isobutylphenyl)propanoate], the “reduction in IL-6 mRNA levels” value in the series with IL-6 mRNA was determined as 42%. For the same compound, in series [1], the “% Inhibition/Protection” value turned out to be 87.5%. The “Writing Reflex ± SE” value in [1] is on record as 5.0 ± 0.9. The “% Inhibition of Edema ± Standard Error” value in series [2] (1 h) is 58.3 ± 0.7%; in series [2] (2 h), 69.6 ± 2.1%; in series [2] (3 h, 10 mg/kg), 94.5% and 94.5 ± 0.4%; in series [2] (4 h), 66.8 ± 1.6%; in series [2] (24 h), 8.4 ± 1.2%. The “Mean Edema Thickness” value in series [2] (3 h) amounted to 0.040 ± 0.01 mm. Besides, in the series on TNF-α mRNA, the “reduction in TNF-α mRNA levels” value is recorded as 82%. For the same compound, the “% Protection” value was found to be 84.1% in the series with hot plate latency (after 30 min), 41.3% with hot plate latency (after 60 min), 25.0% in the series with hot plate latency (after 90 min) and 27.1% in the series on hot plate latency (after 120 min). Further, the “Latency Period ± SE” value in the series on hot plate latency (after 30 min) came out at 12.30 ± 1.6 s; with hot plate latency (after 60 min), 10.27 ± 1.9 s; in the series on hot plate latency (after 90 min), 11.14 ± 1.5 s; in the series on hot plate latency (after 120 min) it was 11.45 ± 2.0 s. Besides, the “LPS-stimulated NO production (nitrite)” value in [3] was determined as 4.88 ± 1 µM. Moreover, in the series with gastric mucosa, the “Ulcer Index” value was found to be 0. Further, in the series with gastric mucosa, the “% Incidence of Ulcer Divided by 10” value is reported as 0. The “Average Severity of Ulcer” value in the series on gastric mucosa is 0. The “Average of Ulcer Number” value with gastric mucosa was 0. The “Number of Animals with Ulcer” value in the series on gastric mucosa is 0. Besides, in the series on mice, the “toxic symptoms or mortality” value was “No toxic symptoms or mortality”.

These data come from publication PMC9965125, “New NSAID Conjugates as Potent and Selective COX-2 Inhibitors: Synthesis, Molecular Modeling and Biological Investigation” (Molecules, 2023).
